This test addresses T1, AKR1A1 (Homo sapiens, UniProt P14550).
T1 sequence (P14550 1-325): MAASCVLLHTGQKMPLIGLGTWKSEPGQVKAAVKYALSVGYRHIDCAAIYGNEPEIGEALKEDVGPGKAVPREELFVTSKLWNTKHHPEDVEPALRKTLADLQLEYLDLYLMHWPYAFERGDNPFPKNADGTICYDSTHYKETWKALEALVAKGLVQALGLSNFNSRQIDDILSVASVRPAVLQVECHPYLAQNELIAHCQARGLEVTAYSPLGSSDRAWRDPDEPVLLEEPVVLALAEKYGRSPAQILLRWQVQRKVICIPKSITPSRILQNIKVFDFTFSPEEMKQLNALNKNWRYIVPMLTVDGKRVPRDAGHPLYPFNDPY
Description: AKR activity measured using S-nitroso-Coenzyme A (SNO-CoA) as a substrate; selectivity for AKR1A1 versus AKR1B1. It is filed as biochemical. The text has this:
In some embodiments, the selectivity of the AKR inhibitor for AKR1A1 inhibition versus other AKRs, such as AKR1B1, can be measured using S-nitroso-Coenzyme A (SNO-CoA) as a substrate. In this instance where SNO-CoA is used as a substrate to measure AKR activity, the AKR inhibitor can have a selectivity for AKR1A1 versus AKR1B1 of ≥1 time, ≥2 times, ≥5 times, ≥10 times, ≥20 times, ≥30 times, ≥40 times, ≥50 times or more. By way of example, JSD-26-1, which is described in the example below, has an AKR1A1/AKR1B1 selectivity of at least 9. In some embodiments, the AKR inhibitor can have negligible inhibition of AKR1B1 activity of SNO-CoA, and particularly compared to AKR1A1 activity.

Regarding `O=C1NC(=O)C2(N1)c1ccccc1-c1ccc(C3CC3)cc12` (stereo not shown) [JSD-26-1], the AKR1A1/AKR1B1 selectivity entry was “at least 9”.

The values above are taken from patent publication US12098135B2, “Aldoketo reductase inhibitors and uses thereof” (CASE WESTERN RESERVE UNIVERSITY, priority 2018, dated 2024).
